Data as given in ChEMBL document CHEMBL1201862, “PubChem BioAssay data set” (2004).
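In this assay, cells in 96-well plates receive the compound at five concentrations for 48 hours. Endpoints are linearly interpolated between the surrounding concentrations. Here, GI50 denotes the concentration required for 50% inhibition of growth.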 Calls of active or inactive are those of the source. No stated cut-off is given here; in the data, active = GI50 up to about 1.1 µM and inactive = higher.

Tests used:
Experiment in all cases: inhibition of tumour cell growth, NCI panel, 48 h
CCRF-CEM = system: CCRF-CEM
OVCAR-8 = system: OVCAR-8
SN12C = system: SN12C
M14 = system: M14
NCI-H23 = system: NCI-H23
HL-60 = system: HL-60
HCT-116 = system: HCT-116
EKVX = system: EKVX
COLO 205 = system: COLO 205
RPMI-8226 = system: RPMI-8226
SF-539 = system: SF-539
TK-10 = system: TK-10
NCI-H226 = system: NCI-H226
HT-29 = system: HT-29
U-251 = system: U-251
MOLT-4 = system: MOLT-4
SNB-19 = system: SNB-19
Malme-3M = system: Malme-3M
ACHN = system: ACHN

| SMILES | GI50 (CCRF-CEM) | GI50 (OVCAR-8) | GI50 (SN12C) | GI50 (M14) | GI50 (NCI-H23) | GI50 (HL-60) | GI50 (HCT-116) | GI50 (EKVX) | GI50 (COLO 205) | GI50 (RPMI-8226) | GI50 (SF-539) | GI50 (TK-10) | GI50 (NCI-H226) | GI50 (HT-29) | GI50 (U-251) | GI50 (MOLT-4) | GI50 (SNB-19) | GI50 (Malme-3M) | GI50 (ACHN) |
| --- | --- | --- | --- | --- | --- | --- | --- | --- | --- | --- | --- | --- | --- | --- | --- | --- | --- | --- | --- |
| CCN(CC)CC(=O)NC1c2ccccc2Oc2ccccc21 | > 100 µM (inactive) | > 100 µM (inactive) | > 100 µM (inactive) | > 100 µM (inactive) | > 100 µM (inactive) | > 100 µM (inactive) | > 100 µM (inactive) | > 100 µM (inactive) | > 100 µM (inactive) | > 100 µM (inactive) | > 100 µM (inactive) | > 100 µM (inactive) | > 100 µM (inactive) | > 100 µM (inactive) | > 100 µM (inactive) | > 100 µM (inactive) | > 100 µM (inactive) |  |  |
| N#CCCN(c1ccc(/C=C2\N=C(Cc3ccccc3)OC2=O)cc1)S(=O)(=O)c1ccccc1 | > 100 µM (inactive) | > 100 µM (inactive) | > 100 µM (inactive) | > 100 µM (inactive) | > 100 µM (inactive) | > 100 µM (inactive) | > 100 µM (inactive) | > 100 µM (inactive) | > 100 µM (inactive) | > 100 µM (inactive) | > 100 µM (inactive) | > 100 µM (inactive) | > 100 µM (inactive) | > 100 µM (inactive) | > 100 µM (inactive) | > 100 µM (inactive) | > 100 µM (inactive) | > 100 µM (inactive) | > 100 µM (inactive) |
| COC(=O)C(Cc1ccccc1)NP(=O)(O)OCC1OC(n2cc(F)c(=O)[nH]c2=O)CC1O (stereo unspecified) | 1.1 µM (active) | 9.12 µM (inactive) | 10.4 µM (inactive) | 21.3 µM (inactive) | 10.9 µM (inactive) | 10.5 µM (inactive) | 5.53 µM (inactive) | > 100 µM (inactive) | 74 µM (inactive) | > 79.6 µM (inactive) | 0.991 µM (active) | > 100 µM (inactive) | > 33.4 µM (inactive) | 11.2 µM (inactive) | 8.99 µM (inactive) | 4.78 µM (inactive) | 3.34 µM (inactive) | > 100 µM (inactive) | 1.44 µM (inactive) |
| CN(C)CCNC(=O)c1cccc(N(C)C(=O)c2ccccc2)c1[N+](=O)[O-] | > 100 µM (inactive) | > 100 µM (inactive) | > 10 µM (inactive) | > 100 µM (inactive) | > 100 µM (inactive) | > 100 µM (inactive) | > 100 µM (inactive) |  | > 10 µM (inactive) |  | > 100 µM (inactive) | > 100 µM (inactive) | > 100 µM (inactive) | > 100 µM (inactive) | > 100 µM (inactive) | > 100 µM (inactive) | > 100 µM (inactive) | > 100 µM (inactive) | > 100 µM (inactive) |
| Cc1ccc(S(=O)(=O)N(CC(O)COc2ccccc2)c2ccccc2Cl)cc1 (stereo unspecified) | 13.9 µM (inactive) | 16.3 µM (inactive) | 15 µM (inactive) | 16.5 µM (inactive) | 14.7 µM (inactive) | 24.6 µM (inactive) | 14.6 µM (inactive) | 13.6 µM (inactive) | 16.8 µM (inactive) | 11.5 µM (inactive) | 18 µM (inactive) | 14.2 µM (inactive) | 14.9 µM (inactive) | 17.5 µM (inactive) | 14.4 µM (inactive) | 19.8 µM (inactive) | 18.2 µM (inactive) | 14.5 µM (inactive) | 16.3 µM (inactive) |
| CCOCc1c(C)cc(C)c(C2C(C(=O)c3ccccc3)N3c4ccccc4C=CC3C2(C#N)C(=O)OCC)c1C (stereo unspecified) | 56.4 µM (inactive) |  | 61.5 µM (inactive) | 36.5 µM (inactive) | 44.4 µM (inactive) | > 100 µM (inactive) | 26.7 µM (inactive) | 16.1 µM (inactive) | 19.1 µM (inactive) | 81.7 µM (inactive) |  |  |  | 32.3 µM (inactive) | 85.7 µM (inactive) | 86.5 µM (inactive) | > 100 µM (inactive) |  | 50.9 µM (inactive) |
| COc1ccc(-n2/c(=N/C(=S)N(C)C)ss/c2=N\C(=S)N(C)C)cc1 |  | 37 µM (inactive) | > 100 µM (inactive) | 36.9 µM (inactive) | 39.4 µM (inactive) | 17 µM (inactive) | 13 µM (inactive) | > 100 µM (inactive) | 48 µM (inactive) | 21 µM (inactive) | 52.2 µM (inactive) | > 100 µM (inactive) | > 100 µM (inactive) | 2.26 µM (inactive) | 25.6 µM (inactive) | 79.4 µM (inactive) | 11.6 µM (inactive) | > 100 µM (inactive) | > 100 µM (inactive) |
| COc1cc2c(cc1OC)-c1[nH]c3ccc([N+](=O)[O-])cc3c1CC(=O)N2 | 0.975 µM (active) | 2.82 µM (inactive) | 2.37 µM (inactive) | 5.38 µM (inactive) | 4.33 µM (inactive) | 2.94 µM (inactive) | 0.472 µM (active) | 5.87 µM (inactive) | 0.325 µM (active) | 3.6 µM (inactive) | 0.316 µM (active) | 2.37 µM (inactive) | 0.78 µM (active) | 3.83 µM (inactive) | 3.32 µM (inactive) | 1.56 µM (inactive) | 6.84 µM (inactive) |  | 2.32 µM (inactive) |
